Laboratory results from patent US9701680B2, “Pyrimidine and pyridine compounds and their usage” (HUTCHISON MEDIPHARMA LIMITED, priority 2013, dated 2017).
Read-outs that look alike come from different tables or passages of the source.

Legend:
Recombinant human FGFR1 = Recombinant human FGFR1 (Homo sapiens, UniProt P11362); assay: Transcreener Kinase Assay of FGFR1; assay type: biochemical
Protocol: (§1) • 1. […] Prepare Solution • Test compounds were solved in DMSO and were diluted with assay buffer to 5 folds of final concentration keeping the DMSO concentration at 5%. Further dilution are needed to make final concentrations are at 1, 0.33, 0.11, 0.037, 0.012, 0.004, 0.0014, 0.0005 μM; (the final concentration of DMSO is 1%). • Enzyme/Substrate stock Preparation: Recombinant human FGFR1 and Poly E4Y are both diluted in assay buffer.
• 3. Enzymatic Reaction • In a 96-well plate, add 5 μL of diluted solution of test compound or control solution. (positive control: 5 μL of 5% DMSO; negative control: 5 μL of 500 mM EDTA) into desired wells respectively; • Add 10 μL of Enzyme/Substrate stock into each well; • Add 10 μL of ATP Diluents to initiate the enzyme reaction and vortex the plate immediately on a plate shaker; • For the wells to make standard curve, add 5 μL of 5% DMSO, 10 μL of assay buffer and 10 μL of ATP standard curve stock. • Incubate the plate for 45 min at 28° C. on a plate shaker in a low speed. • 4. […] Excitation wavelength: 610 nm, Emission wavelength: 670 nm. • 5. Data Analysis
(§2) [formula] Note: • [ADP] in Compound well represents the ADP concentration in test compound well. • [ADP] in Positive control well represents the ADP concentration in 5% DMSO well • Conversion of mP value to ADP concentration is calculated based on the formula which determined by standard curve. And mP value is measured by following the instruction provided by BellBrook Labs. (www.bellbrooklabs.com). • 6. IC50: determined with add-in software for Microsoft Excel, XLfit™ (version 2.0) from ID Business Solutions (Guildford, UK).

Recombinant human FGFR2 = Recombinant human FGFR2 (Homo sapiens, UniProt P21802); assay: Transcreener Kinase Assay of FGFR2; assay type: biochemical
Sequence of Recombinant human FGFR2 (P21802 22-821): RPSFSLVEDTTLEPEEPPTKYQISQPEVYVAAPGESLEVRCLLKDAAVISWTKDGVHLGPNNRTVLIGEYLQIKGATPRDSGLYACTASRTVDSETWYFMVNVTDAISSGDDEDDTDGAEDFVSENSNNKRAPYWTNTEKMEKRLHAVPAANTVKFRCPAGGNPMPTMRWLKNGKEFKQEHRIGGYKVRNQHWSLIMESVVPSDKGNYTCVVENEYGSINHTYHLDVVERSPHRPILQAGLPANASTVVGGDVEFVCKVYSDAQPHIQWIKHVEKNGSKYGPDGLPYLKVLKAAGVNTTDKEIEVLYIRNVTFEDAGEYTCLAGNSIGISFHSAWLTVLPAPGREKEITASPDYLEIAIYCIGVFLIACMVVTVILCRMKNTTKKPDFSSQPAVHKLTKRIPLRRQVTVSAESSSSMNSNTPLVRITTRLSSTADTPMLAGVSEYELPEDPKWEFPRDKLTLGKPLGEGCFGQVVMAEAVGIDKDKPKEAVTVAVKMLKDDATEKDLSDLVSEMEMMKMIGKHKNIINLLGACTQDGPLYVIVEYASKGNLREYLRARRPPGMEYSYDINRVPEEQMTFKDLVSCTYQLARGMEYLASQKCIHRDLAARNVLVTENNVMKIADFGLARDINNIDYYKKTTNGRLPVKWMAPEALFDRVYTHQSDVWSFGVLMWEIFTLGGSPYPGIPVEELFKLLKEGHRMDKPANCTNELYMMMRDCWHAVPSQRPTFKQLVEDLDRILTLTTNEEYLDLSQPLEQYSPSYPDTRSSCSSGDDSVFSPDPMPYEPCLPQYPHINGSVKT
Protocol: Example 24: Transcreener Kinase Assay of FGFR2
as §1, with “FGFR2” for “FGFR1”, “buffer. The final concentration is 0.3 ng/μL for FGFR2 and 62.5 ng/μL for Poly E4Y. The mixture is being kept in ice before use; • Prepare ATP Diluents, 10 mM ATP is diluted in assay buffer, the final concentration is 25 μM; • Prepare ADP Diluents: diluted ADP (500 μM) in assay buffer, the final concentration is 25 μM; • Prepare ATP standard curve stock as following:” for “buffer.”
• 3. Enzymatic Reaction • In a 96-well plate, add 5 μL of deluted solution of test compound or control solution. (positive control: 5 μL of 5% DMSO; negative control: 5 μL of 500 mM EDTA) into desired wells respectively; • Add 10 μL of Enzyme/Substrate stock into each well; • Add 10 μL of ATP Diluents to initiate the enzyme reaction and vortex the plate immediately on a plate shaker; • For the wells to make standard curve, add 5 μL of 5% DMSO, 10 μL of assay buffer and 10 μL of ATP standard curve stock. • Incubate the plate for 45 min at 28° C. on a plate shaker in a low speed. • 4. Stoping Reaction and Detecting ADP • Detection Mix Preparation: The mixture is made by dilution with MilliQ water; as following: ADP Alexa633 tracer (1:100), ADP antibody (1:158), and stop & detect buffer (1:10); • Tracer Only control Preparation: The mixture is made by dilution with MilliQ water; as following: ADP Alexa633 tracer (1:100), and stop & detect buffer (1: 10) • No Tracer control Preparation: stop & detect buffer is diluted with MilliQ water; by 10 fold. • Add 25 μL of detection mix, Tracer Only control and No Tracer control into corresponding wells, respectively; • Incubate at 28° C. for 1 h, on a plate shaker in a low speed; • Measure florescence polarization (mP) on TECAN F500. Excitation wavelength: 610 nm, Emission wavelength: 670 nm. • 5. Data Analysis
as §2

FGFR3 kinase = FGFR3 kinase (Homo sapiens, UniProt P22607); assay: Z-Lyte Kinase Assay of FGFR3; assay type: biochemical
Sequence of FGFR3 kinase (P22607 23-806): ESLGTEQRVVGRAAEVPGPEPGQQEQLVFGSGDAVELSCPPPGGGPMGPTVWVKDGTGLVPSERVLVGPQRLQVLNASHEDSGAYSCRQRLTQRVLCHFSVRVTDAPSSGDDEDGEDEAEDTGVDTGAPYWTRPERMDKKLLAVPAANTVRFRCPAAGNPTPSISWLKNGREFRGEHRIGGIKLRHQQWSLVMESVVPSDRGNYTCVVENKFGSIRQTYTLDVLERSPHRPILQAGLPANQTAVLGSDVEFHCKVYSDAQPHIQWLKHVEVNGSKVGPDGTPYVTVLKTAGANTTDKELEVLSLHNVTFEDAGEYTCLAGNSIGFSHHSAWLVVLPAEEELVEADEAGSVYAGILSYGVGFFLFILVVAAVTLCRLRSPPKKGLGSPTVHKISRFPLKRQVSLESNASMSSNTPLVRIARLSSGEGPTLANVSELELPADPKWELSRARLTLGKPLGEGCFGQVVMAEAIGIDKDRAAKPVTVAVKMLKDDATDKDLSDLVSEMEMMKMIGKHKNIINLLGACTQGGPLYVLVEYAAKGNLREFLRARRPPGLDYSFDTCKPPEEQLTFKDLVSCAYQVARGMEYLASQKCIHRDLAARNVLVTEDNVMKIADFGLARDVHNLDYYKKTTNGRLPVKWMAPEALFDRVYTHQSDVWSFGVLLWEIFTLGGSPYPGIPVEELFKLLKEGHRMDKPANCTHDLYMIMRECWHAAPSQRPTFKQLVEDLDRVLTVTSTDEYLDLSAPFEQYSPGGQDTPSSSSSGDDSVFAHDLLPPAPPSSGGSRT
Protocol: Example 25: Z-Lyte Kinase Assay of FGFR3
• 1. Materials and Reagents:
• 2. Reaction Steps: Plate Map
• 3. […] The final concentrations are 1, 0.33, 0.11, 0.037, 0.012, 0.004, 0.0014, 0.00046 μM, and the final concentration of DMSO is 2%. • 3) Kinase/Peptide Mixture (P/K solution): Prepare Kinase/Peptide Mixture by diluting the kinase to 0.7 μg/ml and the Z-LYTE™ Tyr 4 peptide to 4 μM in 1.33× Kinase Buffer. Mix gently by pipetting. • 4) Phospho-peptide Solution (PP solution): Add 0.4 μl of Z-LYTE™ Tyr 4 Phospho-peptide to 99.6 μl of 1.33× Kinase Buffer. • 5) ATP Solution: Prepare ATP Solution by diluting the 10 mM of ATP in 1.33× Kinase Buffer to 300 uM. • 6) Development Solution: Dilute Development Reagent B with Development Buffer as 1:128. • 4. […] Shake the plate for 30 Sec and centrifuge (1500 rpm, 1 min). • Seal the plate to protect from the light and incubate the plate for 1 hour at RT (25-30° C.). • 2) Development reaction • Add 5 μl of the Development solution to all wells. • Shake the plate for 30 Sec and centrifuge (1500 rpm, 1 min). • Seal the plate to protect from the light and incubate the plate for 1 hour at RT (25-30° C.). • 3) Stop and Read • Add 5 μl of the Stop reagent to all wells. • Shake the plate for 30 Sec and centrifuge (1500 rpm, 1 min). • Measure the value of Coumarin (Ex400 nm, Em445 nm) and fluorescein (Ex400 nm, Em520 nm), respectively. • 5. Data Analysis Emission Ratio(ER)=Coumarin Emission (445 nm)/Fluorescein Emission (520 nm) % Phosphorylation=1−[ER×C3520nm-C3445nm]/[(C1445nm-C3445nm)+ER×(C3520nm−C1520nm)] Inhibition rate (IR)=1−% Photest Cpd/% PhoC2 • 6. IC50 Value: determined with add-in software for Microsoft Excel, XLfit™ (version 2.0) from ID Business Solutions (Guildford, UK)

KG-1 = assay: Cellular Proliferation Assay (Cell Counting Kit-8), KG-1; assay type: cell-based; details: Homo sapiens; KG-1 cells, 72 hours; read-out: KG1 IC50
Protocol: (§3) Example 26: Cellular Proliferation Assay
(§4) • 1. Cell Line • KG-1 (ATCC Accession No. CCL-246), • SNU-16 (ATCC Accession No. CRL-5974), • RT-112 (ECACC Accession No. 85061106) • 2. Assay Protocol • FGFR related cancer cell proliferation is measured in 96-well plates using Cell Counting Kit-8 (Dojindo CK04-13). • Seed 30000 cells/well of KG1, 5000 cells/well of SNU16, and 1000 cells/well of RT112 in a volume of 100 μL/well in growth media. • After 24 hours, dilute the test compound to 10, 3.3, 1.1, 0.37, 0.12, 0.04, 0.013, 0.004 μM, keeping the DMSO concentration at 5%. • Add 10 μL of 8-point compound series to the wells of culturing cells. • Incubate at 37° C. and 5% CO2 for 72 hours • Add 10 μL/well of CCkit8 and incubate at 37° C. and 5% CO2 for an hour • Detect the optical density of each well at 450 nm on Labsystems Multiskan K3. • 3. Data Analysis
(§5) [formula] Note: • ODcompound well represents the optical density of cells treated with compound. • ODcell well represents the optical density of cells without compounds treatment.(only 0.5% DMSO) • ODcontrol well represents the optical density of culture media background • IC50: determined with add-in software for Microsoft Excel, XLfit™ (version 2.0) from ID Business Solutions (Guildford, UK).

SNU-16 = assay: Cellular Proliferation Assay (Cell Counting Kit-8), SNU-16; assay type: cell-based; details: Homo sapiens; SNU-16 cells, 72 hours
Protocol: as §3, §4, §5

RT-112 = assay: Cellular Proliferation Assay (Cell Counting Kit-8), RT-112; assay type: cell-based; details: Homo sapiens; RT-112 cells, 72 hours
Protocol: as §3, §4, §5

Sequence of Recombinant human FGFR1 (P11362 22-822): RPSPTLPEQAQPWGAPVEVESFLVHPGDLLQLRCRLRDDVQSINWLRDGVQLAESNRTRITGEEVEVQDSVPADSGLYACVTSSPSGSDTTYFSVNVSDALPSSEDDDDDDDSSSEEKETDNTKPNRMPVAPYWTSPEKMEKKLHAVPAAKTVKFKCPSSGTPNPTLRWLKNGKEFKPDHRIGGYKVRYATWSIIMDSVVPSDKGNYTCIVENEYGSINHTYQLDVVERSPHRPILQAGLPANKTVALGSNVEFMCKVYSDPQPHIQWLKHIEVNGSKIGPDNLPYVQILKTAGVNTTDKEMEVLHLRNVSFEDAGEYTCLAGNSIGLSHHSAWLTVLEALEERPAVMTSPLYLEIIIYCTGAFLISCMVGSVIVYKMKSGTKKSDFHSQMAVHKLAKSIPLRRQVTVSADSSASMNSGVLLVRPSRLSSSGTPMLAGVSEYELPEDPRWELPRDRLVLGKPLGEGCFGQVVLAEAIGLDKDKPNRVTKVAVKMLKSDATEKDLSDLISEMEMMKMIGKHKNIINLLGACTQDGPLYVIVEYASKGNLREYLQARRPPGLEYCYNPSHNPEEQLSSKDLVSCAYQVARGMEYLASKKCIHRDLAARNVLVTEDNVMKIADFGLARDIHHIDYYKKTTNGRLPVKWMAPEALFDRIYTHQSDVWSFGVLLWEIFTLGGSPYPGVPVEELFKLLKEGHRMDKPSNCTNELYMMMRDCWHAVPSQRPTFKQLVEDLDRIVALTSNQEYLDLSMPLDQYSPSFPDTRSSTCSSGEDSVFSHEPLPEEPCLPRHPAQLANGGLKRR

Structure (SMILES)	IC50 (Recombinant human FGFR1; read-out: FGFR1 (FP) IC50) [µM]	IC50 (Recombinant human FGFR2; read-out: FGFR2 (FP) IC50) [µM]	IC50 (FGFR3 kinase) [µM]	IC50 (KG-1) [µM]	IC50 (SNU-16) [µM]	IC50 (RT-112) [µM]	IC50 (Recombinant human FGFR1; FP) [µM]	IC50 (Recombinant human FGFR2; FP) [µM]	IC50 (FGFR3 kinase; Z-lyte) [µM]
CNC(=O)c1cc(COc2cnc(Nc3ccc(OC)c(N4CCN(C)CC4)c3)nc2)c(F)c(OC)c1 [Compound 270]	0.018	0.009	0.008	0.052	0.01	0.023	–	–	–
CCN(CC)CCOc1ccc(Nc2ncc(OCc3cc(C(=O)NC)cc(OC)c3F)cn2)cc1 [Compound 262]	0.043	0.02	0.021	0.037	0.029	0.133	–	–	–
CNC(=O)c1cc(COc2cnc(Nc3ccc(N4C[C@@H](C)N(C)[C@@H](C)C4)cc3)nc2)c(Cl)c(OC)c1 [Compound 286]	–	–	–	0.008	0.016	0.043	0.007	0.006	0.009
CCN1CCN(c2ccc(Nc3ncc(OCc4cc(C(=O)NC)cc(OC)c4F)cn3)cc2OC)CC1 [Compound 283]	–	–	–	0.008	0.003	0.008	0.012	0.005	0.004
CNC(=O)c1cc(COc2cnc(Nc3ccc(N4CCN(C)CC4)nc3)nc2)c(Cl)c(OC)c1 [Compound 263]	0.005	0.005	0.006	0.007	0.014	0.028	–	–	–
CNC(=O)c1cc(CCc2cnc(Nc3cnn(C[C@H](C)O)c3)nc2)c(Cl)c(OC)c1 [Compound 88]	0.012	0.005	0.003	0.03	0.024	0.05	–	–	–
CCN1CCc2cc(Nc3ncc(OCc4cc(C(=O)NC)cc(OC)c4F)cn3)ccc21 [Compound 224]	0.065	0.027	0.056	0.063	0.056	0.234	–	–	–
CNC(=O)c1cc(COc2cnc(Nc3ccc(CCN(C)C)cc3)nc2)c(F)c(OC)c1 [Compound 225]	0.026	0.015	0.011	0.007	0.014	0.021	–	–	–
CNC(=O)c1cc(COc2cnc(Nc3ccc4c(c3)NC(=O)C4(C)C)nc2)c(F)c(OC)c1 [Compound 230]	0.101	0.032	0.045	0.076	0.014	0.026	–	–	–
CNC(=O)c1cc(COc2cnc(Nc3cnn(C[C@H]4COC(C)(C)O4)c3)nc2)c(F)c(OC)c1 [Compound 249]	0.038	0.014	0.015	0.027	0.01	0.03	–	–	–
CNC(=O)c1cc(COc2cnc(Nc3cccc(NC(C)=O)c3)nc2)c(F)c(OC)c1 [Compound 216]	0.01	0.007	0.011	0.024	0.02	0.132	–	–	–
CNC(=O)c1cc(COc2cnc(Nc3ccc(S(C)(=O)=O)cc3)nc2)c(F)c(OC)c1 [Compound 226]	0.03	0.01	0.027	0.035	0.032	0.285	–	–	–
CNC(=O)c1cc(OC)c(Cl)c(COc2cnc(Nc3ccc(N4C[C@@H](C)N[C@@H](C)C4)c(C)c3)nc2)c1F [Compound 298]	–	–	–	0.008	0.014	0.015	0.009	0.008	0.013
CNC(=O)c1cc(COc2cnc(Nc3ccc(N4C[C@@H](C)N(C)[C@@H](C)C4)cc3)nc2)c(F)c(OC)c1 [Compound 267]	0.006	0.006	0.008	0.028	0.017	0.033	–	–	–
CNC(=O)c1cc(COc2cnc(Nc3ccc(N4C[C@@H](C)N(C)[C@@H](C)C4)nc3)nc2)c(F)c(OC)c1 [Compound 268]	0.021	0.016	0.02	0.017	0.018	0.047	–	–	–
CCN1CCN(c2ccc(Nc3ncc(C#Cc4cc(C(=O)NC)cc(OC)c4F)cn3)cc2OC)CC1 [Compound 307]	–	–	–	0.005	0.001	0.005	0.019	0.017	0.021
